These results are taken from US20260317299A1, “PIKFYVE PROTEIN KINASE DEGRADATION AGENT AND USE THEREOF” (Shanghai Institute of Organic Chemistry, Chinese Academy of …, priority 2023, published 2026).

T1 sequence (Q9Y2I7 whole entry): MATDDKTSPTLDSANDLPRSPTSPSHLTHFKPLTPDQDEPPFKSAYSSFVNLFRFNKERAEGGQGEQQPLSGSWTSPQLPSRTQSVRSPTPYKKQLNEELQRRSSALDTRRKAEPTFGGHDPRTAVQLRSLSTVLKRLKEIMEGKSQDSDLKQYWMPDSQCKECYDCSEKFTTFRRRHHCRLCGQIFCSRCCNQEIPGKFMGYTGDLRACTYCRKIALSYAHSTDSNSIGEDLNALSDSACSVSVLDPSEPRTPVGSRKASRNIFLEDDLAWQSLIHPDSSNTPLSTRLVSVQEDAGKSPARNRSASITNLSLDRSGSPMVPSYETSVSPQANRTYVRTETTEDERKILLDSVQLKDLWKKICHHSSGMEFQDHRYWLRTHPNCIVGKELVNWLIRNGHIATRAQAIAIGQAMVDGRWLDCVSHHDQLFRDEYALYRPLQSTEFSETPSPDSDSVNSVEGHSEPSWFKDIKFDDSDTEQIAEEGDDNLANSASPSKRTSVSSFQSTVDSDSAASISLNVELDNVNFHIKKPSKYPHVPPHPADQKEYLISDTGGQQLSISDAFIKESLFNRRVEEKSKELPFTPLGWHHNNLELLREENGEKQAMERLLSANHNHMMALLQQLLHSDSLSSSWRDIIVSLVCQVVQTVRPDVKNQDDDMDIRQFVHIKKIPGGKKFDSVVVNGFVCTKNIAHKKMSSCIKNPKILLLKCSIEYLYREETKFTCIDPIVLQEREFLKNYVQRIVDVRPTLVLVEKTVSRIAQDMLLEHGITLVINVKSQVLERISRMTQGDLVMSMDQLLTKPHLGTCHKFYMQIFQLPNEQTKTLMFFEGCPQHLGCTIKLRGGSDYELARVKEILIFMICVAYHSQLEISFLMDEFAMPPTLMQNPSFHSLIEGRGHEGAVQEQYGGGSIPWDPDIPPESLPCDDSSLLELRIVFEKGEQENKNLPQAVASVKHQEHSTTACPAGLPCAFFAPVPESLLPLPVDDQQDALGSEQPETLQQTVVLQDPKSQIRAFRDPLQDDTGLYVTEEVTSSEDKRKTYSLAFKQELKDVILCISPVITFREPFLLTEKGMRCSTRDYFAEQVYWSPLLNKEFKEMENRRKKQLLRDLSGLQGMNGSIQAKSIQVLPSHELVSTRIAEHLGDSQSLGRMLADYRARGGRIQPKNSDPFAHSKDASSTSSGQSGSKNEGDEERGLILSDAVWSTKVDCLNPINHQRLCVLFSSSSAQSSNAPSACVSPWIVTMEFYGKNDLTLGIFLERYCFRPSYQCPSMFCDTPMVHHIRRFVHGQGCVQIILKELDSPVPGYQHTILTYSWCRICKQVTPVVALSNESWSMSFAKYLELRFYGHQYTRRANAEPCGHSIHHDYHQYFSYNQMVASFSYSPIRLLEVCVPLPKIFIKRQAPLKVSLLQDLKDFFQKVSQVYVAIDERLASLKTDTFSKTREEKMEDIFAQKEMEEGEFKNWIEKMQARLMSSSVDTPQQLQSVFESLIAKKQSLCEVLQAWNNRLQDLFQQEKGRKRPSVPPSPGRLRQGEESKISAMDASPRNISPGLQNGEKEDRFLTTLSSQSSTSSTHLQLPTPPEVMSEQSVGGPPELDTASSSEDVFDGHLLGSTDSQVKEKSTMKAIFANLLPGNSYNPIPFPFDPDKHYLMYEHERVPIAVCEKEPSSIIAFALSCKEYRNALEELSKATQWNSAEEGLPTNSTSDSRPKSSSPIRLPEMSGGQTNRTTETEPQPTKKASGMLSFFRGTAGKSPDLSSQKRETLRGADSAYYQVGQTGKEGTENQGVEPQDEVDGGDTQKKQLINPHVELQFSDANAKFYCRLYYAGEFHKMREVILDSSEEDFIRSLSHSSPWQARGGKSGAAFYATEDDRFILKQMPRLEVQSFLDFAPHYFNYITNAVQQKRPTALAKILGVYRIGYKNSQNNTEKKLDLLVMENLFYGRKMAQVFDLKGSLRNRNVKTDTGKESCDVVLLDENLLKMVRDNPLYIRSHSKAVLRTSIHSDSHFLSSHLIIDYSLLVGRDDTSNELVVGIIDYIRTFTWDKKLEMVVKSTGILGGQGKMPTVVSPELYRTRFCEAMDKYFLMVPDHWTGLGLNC

This test has as its target T1, PIKfyve (Homo sapiens, UniProt Q9Y2I7).
T1 construct: endogenous in cells; host or cells: VCaP
Put plainly: Degradation of PIKfyve proteins in VCaP tumor cells (24 h, Western blot). It is filed as cell-based. As to conditions: 37° C., compared with DMSO control, WB, read-out: DC50 (concentration that achieves 50% degradation activity). The protocol:
Method: 200 μL of cells at a density of 5×10^6 cells/ml were inoculated into a 6-well plate, and then different concentrations of drugs were added. The cells were treated at 37° C. for 24 h. The […] was collected and washed with PBS twice. Then, 100-200 μL of 1×SDS lysate was added, and the cell lysate was collected into a centrifuge tube. The cells were disrupted ultrasonically for 10-20 sec, and boiled for 10 min. Protein samples were subjected to SDS-PAGE electrophoresis at a voltage of 90 V, transferred to PVDF membranes at 110 V, blocked with 5% BSA for 4 h, incubated with primary antibodies (PIKfyve, GAPDH) at 4° C. overnight, and incubated with secondary antibodies (anti-Rabbit IgG or anti-Mouse IgG) at room temperature. The membranes were washed with TBST buffer, developed with an ECL developing solution, and then imaged to obtain protein band signals, with single-concentration WB results as shown in FIG. 1. Compared with the DMSO control group, the concentration that achieves 50% degradation activity is defined as DC50.
Take `Cc1cccc(/C=N/Nc2cc(N3CCOCC3)nc(OCCc3ccc(NC(=O)COc4cc(-c5scnc5C)ccc4CNC(=O)[C@@H]4C[C@@H](O)CN4C(=O)[C@@H](NC(=O)C4(F)CC4)C(C)(C)C)cc3)n2)c1` [Example 53, (2S,4R)-1-((S)-2-(1-fluorocyclopropane-1-carboxamido)-3,3-dimethylbutanoyl)-4-hydroxy-N-(2-(2-((4-(2-((4-(2-((E)-3-methylbenzylidene)hydrazino)-6-morpholinopyrimidin-2-yl)oxy)ethyl)phenyl)amino)-2-oxoethoxy)-4-(4-methylthiazol-5-yl)benzyl)pyrrolidine-2-carboxamide]: the DC50 was 1 to 100 nM.
For `Cc1cccc(/C=N/Nc2cc(N3CCOCC3)nc(OCCc3ccc(NC(=O)CCC(=O)Nc4ccc5c(c4)C(=O)N(C4CCC(=O)NC4=O)C5)cc3)n2)c1` (centres unmarked) [Example 28, (E)-N^1-(2-(2,6-dioxopiperidin-3-yl)-3-oxoisoindolin-5-yl)-N^4-(4-(2-((4-(2-(3-methylbenzylidene)hydrazino)-6-morpholinopyrimidin-2-yl)oxy)ethyl)phenyl)succinimide], the DC50 is 1 to 100 nM.
For `Cc1cccc(/C=N/Nc2cc(N3CCOCC3)nc(OCCc3ccc(NC(=O)CCCC(=O)N[C@H](C(=O)N4C[C@H](O)C[C@H]4C(=O)N[C@@H](C)c4ccc(-c5scnc5C)cc4)C(C)(C)C)cc3)n2)c1` [Example 45], the DC50 fell in the range of 1 to 100 nM.
In the case of `Cc1cccc(/C=N/Nc2cc(N3CCOCC3)nc(OCCc3ccc(NC(=O)CCCNC(=O)CC[C@H](NC(=O)[C@@H]4C[C@@H](O)CN4C(=O)[C@@H](NC(=O)C4(F)CC4)C(C)(C)C)c4ccc(-c5scnc5C)cc4)cc3)n2)c1` [Example 51, (2S,4R)-1-((S)-2-(1-fluorocyclopropane-1-carboxamido)-3,3-dimethylbutanoyl)-4-hydroxy-N—((S)-4-((4-((4-(2-((4-(2-((E)-3-methylbenzylidene)hydrazino)-6-morpholinopyrimidin-2-yl)oxy)ethyl)phenyl)amino)-4-oxobutyl)amino)-1-(4-(4-methylthiazol-5-yl)phenyl)4-oxobutyl)pyrrolidine-2-carboxamide], the DC50 lay within 1 to 100 nM.
Take `Cc1cccc(-c2ccn(-c3cc(N4CCOCC4)nc(OCCc4ccc(NC(=O)NC5CN(C(=O)C[C@H](NC(=O)[C@@H]6C[C@@H](O)CN6C(=O)[C@@H](NC(=O)C6(F)CC6)C(C)(C)C)c6ccc(-c7scnc7C)cc6)C5)cc4)n3)n2)c1` [Example 73, (2S,4R)-1-((S)-2-(1-fluorocyclopropane-1-carboxamido)-3,3-dimethylbutanoyl)-4-hydroxy-N—((S)-1-(4-(4-methylthiazol-5-yl)phenyl)-3-(3-(3-(4-(2-((4-morpholino-6-(3-(m-tolyl)-1H-pyrazol-1-yl)pyrimidin-2-yl)oxy)ethyl)phenyl)ureido)azetidin-1-yl)-3-oxopropyl) pyrrolidine-2-carboxamide]: the DC50 lay in the range of 1 to 100 nM.
In the case of `Cc1cccc(/C=N/Nc2cc(N3CCOCC3)nc(OCCc3ccc(NC(=O)CCCCC(=O)N[C@H](C(=O)N4C[C@H](O)C[C@H]4C(=O)N[C@@H](C)c4ccc(-c5scnc5C)cc4)C(C)(C)C)cc3)n2)c1` [Example 46] it was 1 to 100 nM; in that of `Cc1cccc(/C=N/Nc2cc(N3CCOCC3)nc(OCCc3ccc(NC(=O)CCCCC(=O)N[C@H](C(=O)N4C[C@H](O)C[C@H]4C(=O)NCc4ccc(-c5scnc5C)cc4)C(C)(C)C)cc3)n2)c1` [Example 38, N^1—((S)-1-((2S,4R)-4-hydroxy-2-((4-(4-methylthiazol-5-yl)benzyl)carbamoyl)pyrrolidine-1-yl)-3,3-dimethyl-1-oxobutan-2-yl)-N^6-(4-(2-((4-(2-((E)-3-methylbenzylidene) hydrazino)-6-morpholinopyrimidin-2-yl)oxy)ethyl)phenyl)adipamide], 1 to 100 nM.
In the case of `Cc1cccc(/C=N/Nc2cc(N3CCOCC3)nc(OCCc3ccc(NC(=O)CCC(=O)Nc4cccc5c4C(=O)N(C4CCC(=O)NC4=O)C5)cc3)n2)c1` (centres unmarked) [Example 32, (E)-N^1-(2-(2,6-dioxopiperidin-3-yl)-3-oxoisoindolin-4-yl)-N^4-(4-(2-((4-(2-(3-methylbenzylidene)hydrazino)-6-morpholinopyrimidin-2-yl)oxy)ethyl)phenyl)succinimide] it was 1 to 100 nM; in that of `Cc1cccc(/C=N/Nc2cc(N3CCOCC3)nc(OCCc3ccc(NC(=O)CNC(=O)CC[C@H](NC(=O)[C@@H]4C[C@@H](O)CN4C(=O)[C@@H](NC(=O)C4(F)CC4)C(C)(C)C)c4ccc(-c5scnc5C)cc4)cc3)n2)c1` [Example 50, (2S,4R)-1-((S)-2-(1-fluorocyclopropane-1-carboxamido)-3,3-dimethylbutanoyl)-4-hydroxy-N—((S)-4-((2-((4-(2-((4-(2-((E)-3-methylbenzylidene)hydrazino)-6-morpholinopyrimidin-2-yl)oxy)ethyl)phenyl)amino)-2-oxoethyl)amino)-1-(4-(4-methylthiazol-5-yl)phenyl)4-oxobutyl)pyrrolidine-2-carboxamide], 1 to 100 nM.
Take `Cc1cccc(-c2ccn(-c3cc(N4CCOCC4)nc(OC4CCN(c5ccc(N6CCN(c7cc8c(cc7F)C(=O)N(C7CCC(=O)NC7=O)C8=O)CC6)cc5)CC4)n3)n2)c1` (centres unmarked) [Example 89, 2-(2,6-Dioxopiperidin-3-yl)-5-fluoro-6-(4-(4-(4-((4-morpholino-6-(3-(m-tolyl)-1H-pyrazol-1-yl)pyrimidin-2-yl)oxy)piperidin-1-yl)phenyl)piperazin-1-yl)isoindoline-1,3-dione]: the DC50 lay in the range of 100 to 10000 nM.
For `Cc1cccc(/C=N/Nc2cc(N3CCOCC3)nc(OCCc3ccc(NC(=O)CCCNc4ccc5c(c4)C(=O)N(C4CCC(=O)NC4=O)C5=O)cc3)n2)c1` (centres unmarked) [Example 16, (E)-4-((2-(2,6-dioxopiperidin-3-yl)-1,3-dioxoisoindolin-5-yl)amino)-N-(4-(2-((4-(2-(3-methylbenzylidene)hydrazino)-6-morpholinopyrimidin-2-yl)oxy)ethyl)phenyl) butanamide], the DC50 is 100 to 10000 nM.
Regarding `Cc1cccc(-c2ccn(-c3cc(N4CCOCC4)nc(OCCc4ccc(NC(=O)NC5CCN(C(=O)C[C@H](NC(=O)[C@@H]6C[C@@H](O)CN6C(=O)[C@@H](NC(=O)C6(F)CC6)C(C)(C)C)c6ccc(-c7scnc7C)cc6)CC5)cc4)n3)n2)c1` [Example 78, (2S,4R)-1-((S)-2-(1-fluorocyclopropane-1-carboxamido)-3,3-dimethylbutanoyl)-4-hydroxy-N—((S)-1-(4-(4-methylthiazol-5-yl)phenyl)-3-(4-(3-(4-(2-((4-morpholino-6-(3-(m-tolyl)-1H-pyrazol-1-yl)pyrimidin-2-yl)oxy)ethyl)phenyl)ureido)piperidin-1-yl)-3-oxopropyl) pyrrolidine-2-carboxamide], the DC50 lay in the range of 1 to 100 nM.
Consider `Cc1cccc(-c2ccn(-c3cc(N4CCOCC4)nc(Oc4ccc(N5CCC(N6CCN(c7cc8c(cc7F)C(=O)N(C7CCC(=O)NC7=O)C8=O)CC6)CC5)cc4)n3)n2)c1` (centres unmarked) [Example 94, 2-(2,6-Dioxopiperidin-3-yl)-5-fluoro-6-(4-(1-(4-((4-morpholino-6-(3-(m-tolyl)-1H-pyrazol-1-yl)pyrimidin-2-yl)oxy)phenyl)piperidin-4-yl)piperazin-1-yl)isoindoline-1,3-dione], for which the DC50 was in the range of 100 to 10000 nM.
For `Cc1cccc(/C=N/Nc2cc(N3CCOCC3)nc(OCCc3ccc(NC(=O)CCCCCCCCC(=O)Nc4cccc5c4C(=O)N(C4CCC(=O)NC4=O)C5)cc3)n2)c1` (centres unmarked) [Example 35, (E)-N^1-(2-(2,6-dioxopiperidin-3-yl)-3-oxoisoindolin-4-yl)-N^10-(4-(2-((4-(2-(3-methylbenzylidene)hydrazino)-6-morpholinopyrimidin-2-yl)oxy)ethyl)phenyl)decanediamide], the DC50 was 100 to 10000 nM.
With `Cc1cccc(/C=N/Nc2cc(N3CCOCC3)nc(OCCc3ccc(NC(=O)CCCCCCC(=O)Nc4cccc5c4CN(C4CCC(=O)NC4=O)C5=O)cc3)n2)c1` (centres unmarked) [Example 21, (E)-N^1-(2-(2,6-dioxopiperidin-3-yl)-1-oxoisoindolin-4-yl)-N^8-(4-(2-((4-(2-(3-methylbenzylidene)hydrazino)-6-morpholinopyrimidin-2-yl)oxy)ethyl)phenyl)octanediamide], the DC50 was in the range of 1 to 100 nM.
For the compound `Cc1cccc(-c2ccn(-c3cc(N4CCOCC4)nc(OCCc4ccc(N5CCN(C(=O)CCCC[C@H](NC(=O)[C@@H]6C[C@@H](O)CN6C(=O)[C@@H](NC(=O)C6(F)CC6)C(C)(C)C)c6ccc(-c7scnc7C)cc6)CC5)cc4)n3)n2)c1` [Example 77, (2S,4R)-1-((S)-2-(1-fluorocyclopropane-1-carboxamido)-3,3-dimethylbutanoyl)-4-hydroxy-N—((S)-1-(4-(4-methylthiazol-5-yl)phenyl)-6-(4-(4-(2-((4-morpholino-6-(3-(m-tolyl)-1H-pyrazol-1-yl)pyrimidin-2-yl)oxy)ethyl)phenyl)piperazin-1-yl)-6-oxohexyl)pyrrolidine-2-carboxamide], the DC50 lay in the range of 1 to 100 nM.
Regarding `Cc1cccc(-c2ccn(-c3cc(N4CCOCC4)nc(OC4CCN(c5ccc(NC(=O)NC6CCN(c7cc8c(cc7F)C(=O)N(C7CCC(=O)NC7=O)C8=O)CC6)cc5)CC4)n3)n2)c1` (centres unmarked) [Example 92, 1-(1-(2-(2,6-Dioxopiperidin-3-yl)-6-fluoro-1,3-dioxoisoindolin-5-yl)piperidin-4-yl)-3-(4-(4-((4-morpholino-6-(3-(m-tolyl)-1H-pyrazol-1-yl)pyrimidin-2-yl)oxy)piperidin-1-yl)phenyl)urea], the DC50 lay within 100 to 10000 nM.
